# According to a melting point compilation (Tetko et al.; mined from patent text by program, amines drawn as free bases though some values may be those of a salt):
row,Structure (SMILES),melting point
1,Cn1c([N+](=O)[O-])cnc1C1=NO[C@H]2CCCCC[C@@H]12 (relative stereo),93 to 95 °C
2,CN1CCN(C(=O)CCC(=O)c2ccc3[nH]c4nc(Cl)ccc4c3c2)CC1,236 °C
3,CCCCc1[nH]c2ccc([N+](=O)[O-])cc2c1C(=O)c1ccc(OCCCN(CCCC)CCCC)cc1,116 °C
4,NCc1ccc([N+](=O)[O-])cc1O,210 to 215 °C
5,Brc1ccc2[nH]c3cnc(-c4ccon4)cc3c2c1,292 to 293 °C
6,Cc1ccccc1NCN1C(=O)CSC1=O,109 to 111 °C
7,N[C@@H](Cc1ccc(C(F)(F)F)cc1)[C@H](O)c1ccc(Cl)nc1 (racemic),103 to 104 °C
8,COc1nc(C)nc(NC(=O)NS(=O)(=O)c2ccccc2C(=S)C(C)C)n1,155 to 158 °C
9,O=C(CCNC(=O)OCc1ccccc1)NC1C(C(=O)O)OC(n2cnc3c(NC(=O)c4ccccc4)ncnc32)C1O (stereo unspecified),136 to 141 °C
10,Fc1cccc(CN2CCN=C2S)c1,186 to 188 °C
11,CC1CNC(c2n[nH]c(-c3ccc(Cl)cc3)c2-c2ccncc2)C(C)N1 (stereo unspecified),236 to 238 °C
12,Cc1nnn(-c2ccc(F)cc2)c1CCl,70 to 71 °C
13,CC(C)Oc1ccc(CCCOc2cc(CCC(=O)O)n(C)n2)c(Oc2ncc(Cl)cc2Cl)c1,77 to 78 °C
14,COC(=O)c1nc(Cl)nc(N)c1OC,158 °C
15,O=c1c2cc(F)ccc2nc(CNc2ncccn2)n1-c1ccccc1Cl,182 to 185 °C
16,CC(C(=O)O)c1ccc2c(c1)C(=O)Cc1cc(O)ccc1S2 (stereo unspecified),216 to 217 °C
17,NC(=O)C(=O)NCCC(F)=C(F)F,190 to 220 °C
18,CN(C)CCN(C)C(=O)Cn1nc(-c2ccccc2O)nc1-c1ccccc1O,172 to 174 °C
19,O=c1ccn(Cc2ccccc2)c(=O)[nH]1,168 to 170 °C
20,COc1ccccc1C1=C(NC(=O)Nc2ccc(N(C)C)cc2)SCc2ccccc21,128 to 130 °C
21,COc1ccc(C(=NO)c2ccccc2F)c(Cl)c1Cl,195 to 197 °C
22,O=c1ccn([C@H]2[C@H](O)[C@H](O)[C@@H](CO)C23CC3)c(=O)[nH]1,114 to 116 °C
23,C=CCC1(C(O)C(c2cccc(Cl)c2)n2ccnc2)CC2C=CC1C2 (stereo unspecified),134 to 135 °C
24,CS(=O)(=O)c1cccc(C(=O)Nc2cc(C(=O)NCc3ccccc3)ccn2)c1,170 to 171 °C
25,CCCN1CC(c2ccc(S(C)(=O)=O)cc2)=C(c2ccc(C)cc2)C1=O,161 to 163 °C
26,CCOC(=O)C1=C(COCc2cc(=O)n(C)c(N)n2)NC(C)=C(C(=O)OC)C1c1cccc(Cl)c1Cl (stereo unspecified),202 to 205 °C
27,Nc1nc(N)c(Br)c(OCc2ccccc2)n1,165 to 166 °C
28,Cc1ccccc1-c1nc2c3ccccc3ccn2c1N=Cc1ccc2ccccc2c1Br,250 to 252 °C
29,O=C1CCN(c2ccc(CC3SC(=O)NC3=O)cc2F)CC1 (stereo unspecified),129 to 130 °C
30,CC1Cc2ccccc2NC1C1=NCCN1 (stereo unspecified),138 to 139 °C

# The next lines start with the values.
row,melting point,Structure (SMILES)
1,83 to 87 °C,O=C1C(=O)c2ccc(-c3ccccc3)cc2C2=C1SCC1(CCNCC1)O2
2,171 to 173 °C,COc1cc2c(cc1Cl)C(=O)Cc1ccccc1S2
3,192 to 194 °C,CSC(=O)N(C)c1nnc(-c2cccnc2)s1
4,73 to 76 °C,CCCCc1nn(-c2cccc([N+](=O)[O-])c2)c(=O)n1Cc1ccc(-c2ccccc2S(N)(=O)=O)cc1
5,150 °C,CCCCCCCCCC(C)(C)c1cc(-c2cc3ccc(C(=O)O)cc3o2)ccc1OC
6,114 °C,O=S(=O)(COc1ccc(Cl)cc1)c1ccc(Cl)cc1
7,122 °C,COC(OC)c1ncc[nH]1
8,233 to 234 °C,O=C(C1CCC(Nc2nccc(-n3nnc4c(-c5ccsc5)cccc43)n2)CC1)N1CCC(O)CC1 (stereo unspecified)
9,135 to 137 °C,CC(=S)O/C=C\n1nnnc1C
10,154 °C,Cc1nc(NC(=O)Cc2cccs2)c(Br)c(C)c1Br
11,100 to 101 °C,CCCCCCCCCCCCNC(=O)c1cc(Br)c(OCCn2cnnn2)c(-c2cccc(OC)c2)c1
12,132 °C,CC(C)(C)OC(=O)NN1CCN([Si](C)(C)C)C1=O
13,116 to 120 °C,CC(C)OC(=O)c1cc(-n2c(=O)c3c(n(C)c2=O)CCC3)c(F)cc1Br
14,130 °C,CC1(C)CCC(C)(C)c2cc(C#Cc3ccc(C=O)cc3)ccc21
15,257 to 259 °C,Cc1cc2c3c(cc(C)c2[nH]c1=O)CC(C)(CBr)O3 (stereo unspecified)
16,143 to 150 °C,CN1CCN(Cc2ccc(-c3cc4ncnc(Nc5ccc6[nH]ccc6c5)c4s3)cc2)CC1
17,106 °C,CCCCCC1(O)CCC2(C)C(CCC3C4CCC(C5(C)OCCO5)C4(C)CC(=O)C32)C1 (stereo unspecified)
18,128 to 130 °C,Cc1ccc(N=C(N(Cc2ccccc2)C2CCCCC2)N(Cc2ccccc2)C2CCCCC2)cc1
19,223 to 226 °C,Cc1ccc(N2CC(=O)N(c3ccc(S(N)(=O)=O)cc3Cl)C2)cc1
20,88 to 93 °C,CCOC(=O)CSc1nc(Cl)cc(Nc2cccc(C)c2C)n1
21,286 to 288 °C,COc1cc2[nH]c(C(=O)O)cc(=O)c2c2cccnc12

row,melting point,Structure (SMILES)
1,155 to 156 °C,O=c1c(Cc2cccnc2)nc2cccnc2n1-c1cccc(-c2ccc3ccccc3c2)c1
2,162 to 163 °C,O=c1nc(-c2cccc(CN3CCCCC3)n2)sc2ccccc12
3,290 °C,COc1c(C)c(C(=O)c2ccc3nc(C)[nH]c(=O)c3c2)n2ccccc12
4,119 to 120 °C,CCCC1Sc2c(cc(OC)c(Cl)c2Cl)C1O (stereo unspecified)
5,124 to 125 °C,CCOc1nn(Cc2ccc(OCc3cccnc3)c(OC)c2)cc1CCC(=O)O
6,255 to 257 °C,CN(C)C(=O)c1ncn2c1CC(=O)N(c1ccccc1)c1cc(Cl)ccc1-2
7,103 to 105 °C,CC=CCn1c(N(C(C)=O)c2cc(C)cc(C)c2)c(C(C)C)c(=O)[nH]c1=O
8,95 to 100 °C,Cc1c(-c2ccc(OCc3ccccc3)cc2)n(Cc2ccc(OCCN3C[C@@H]4CC[C@H]3C4)cc2)c2ccc(OCc3ccccc3)cc12
9,137 °C,N#CSc1cnn(-c2c(Cl)cc(C(F)(F)F)cc2Cl)c1N
10,67 to 69 °C,Nc1cc(Cl)c(OCc2ccccc2-c2ccccc2)c(Cl)c1
11,225 to 228 °C,CSC1NC(=O)N(c2cccc(C(F)(F)F)c2)C(=O)N1
12,249 to 250 °C,O=C1c2cc([N+](=O)[O-])cc3c(N4CCCC4)c([N+](=O)[O-])cc(c23)C(=O)N1O
13,198 to 201 °C,CC1(C)Nc2ncc(I)cc2N(Cc2cc(F)ccc2F)C1=O
14,250 to 255 °C,CC(=O)Nc1ccc2nc3n(c2c1)CCC3
15,167 to 169 °C,CCOC(=O)/C=C/c1c(-c2ccc(F)cc2)n(C(C)C)c(=O)c2ccccc12
16,184 to 186 °C,O=C(Nc1ccc(O)c(C(=O)O)c1)OCc1ccccc1
17,173 to 175 °C,O=C(Nc1ccc(-n2nc(C(F)(F)F)cc2C(F)(F)F)cc1)c1ccccc1O
18,196 to 197 °C,Cc1c(C(=O)Nc2ccc(N3CCCCC3)c(C#N)c2)cnn1-c1ccc(F)cc1
19,167 to 170 °C,O=Cc1c2ccccc2c(Cl)c2c(Cl)cccc12
20,131 °C,COC(=O)C(=NO)N(C)c1cccc(C(F)(F)F)c1
